Paper PMC5218480 (PLoS ONE, 2017)

System: MV-4-11 cells
Experiment: Gene expression microarray analysis (Affymetrix PrimeView) and GSEA
Assay type: cell-based, human
Design: RFU PODN (11730768_x_at) / Fold change /veh PODN (11730768_x_at) / RFU LINC00158 (11744669_a_at) / Fold change /veh LINC00158 (11744669_a_at) / RFU DUSP10 (11751237_a_at) / Fold change /veh DUSP10 (11751237_a_at) / RFU ID3 (11757404_x_at) / Fold change /veh ID3 (11757404_x_at) / RFU PLEKHG5 (11737974_s_at) / Fold change /veh PLEKHG5 (11737974_s_at) / RFU LRRC4B (11730491_at) / Fold change /veh LRRC4B (11730491_at) / RFU GIMAP4 (11747438_a_at) / Fold change /veh GIMAP4 (11747438_a_at) / RFU KRT8 (11758183_x_at) / Fold change /veh KRT8 (11758183_x_at) / RFU CNN1 (11734310_a_at) / Fold change /veh CNN1 (11734310_a_at) / RFU VPS37D (11726825_at) / Fold change /veh VPS37D (11726825_at) / RFU C10orf10 (11716522_x_at) / Fold change /veh C10orf10 (11716522_x_at) / RFU KIR2DL2 /// KIR2DL4 /// KIR2DL5A /// KIR2DL5B /// KIR2DS1 /// KIR2DS2 /// KIR2DS3 /// KIR2DS4 /// KIR3DL3 /// KIR3DL3 /// KIR3DS1 (11738374_at) / Fold change /veh KIR2DL2 /// KIR2DL4 /// KIR2DL5A /// KIR2DL5B /// KIR2DS1 /// KIR2DS2 /// KIR2DS3 /// KIR2DS4 /// KIR3DL3 /// KIR3DL3 /// KIR3DS1 (11738374_at) / RFU C1QL1 (11718748_at) / Fold change /veh C1QL1 (11718748_at) / RFU TMPRSS4 (11747572_a_at) / Fold change /veh TMPRSS4 (11747572_a_at) / RFU HAMP (11756126_x_at) / Fold change /veh HAMP (11756126_x_at) / RFU RNFT2 (11725882_a_at) / Fold change /veh RNFT2 (11725882_a_at) / RFU NR4A2 (11747474_a_at) / Fold change /veh NR4A2 (11747474_a_at) / RFU ABCC12 (11746883_a_at) / Fold change /veh ABCC12 (11746883_a_at) / RFU TMEM136 (11760407_x_at) / Fold change /veh TMEM136 (11760407_x_at) / RFU CLDN22 /// WWC2 (11732394_at) / Fold change /veh CLDN22 /// WWC2 (11732394_at) / RFU HLA-DPB1 (11760878_x_at) / Fold change /veh HLA-DPB1 (11760878_x_at) / RFU SPINT1 (11716480_a_at) / Fold change /veh SPINT1 (11716480_a_at) / RFU GAP43 (11754022_s_at) / Fold change /veh GAP43 (11754022_s_at) / RFU A4GNT (11735810_at) / Fold change /veh A4GNT (11735810_at) / RFU PRB3 (11715151_x_at) / Fold change /veh PRB3 (11715151_x_at) / RFU TUBB4B (11761932_at) / Fold change /veh TUBB4B (11761932_at) / RFU CAPN14 (11732068_a_at) / Fold change /veh CAPN14 (11732068_a_at) / RFU TMCC2 (11721928_a_at) / Fold change /veh TMCC2 (11721928_a_at) / RFU IRGQ (11745062_a_at) / Fold change /veh IRGQ (11745062_a_at) / RFU FAM174B (11720279_a_at) / Fold change /veh FAM174B (11720279_a_at) / RFU TMPRSS4 (11748680_a_at) / Fold change /veh TMPRSS4 (11748680_a_at) / RFU FAM212B (11763350_a_at) / Fold change /veh FAM212B (11763350_a_at) / RFU PLEKHG5 (11743358_a_at) / Fold change /veh PLEKHG5 (11743358_a_at) / RFU ZSCAN30 (11745921_a_at) / Fold change /veh ZSCAN30 (11745921_a_at) / RFU CMKLR1 (11741424_a_at) / Fold change /veh CMKLR1 (11741424_a_at) / RFU LOC101060620 /// MAPK8IP1 (11723275_at) / Fold change /veh LOC101060620 /// MAPK8IP1 (11723275_at) / RFU SPTSSB (11747773_x_at) / Fold change /veh SPTSSB (11747773_x_at) / RFU PRSS12 (11739890_at) / Fold change /veh PRSS12 (11739890_at) / RFU BIN1 (11741810_x_at) / Fold change /veh BIN1 (11741810_x_at) / RFU WNT11 (11732464_a_at) / Fold change /veh WNT11 (11732464_a_at) / RFU C10orf10 (11716521_a_at) / Fold change /veh C10orf10 (11716521_a_at) / RFU C5orf56 (11738089_at) / Fold change /veh C5orf56 (11738089_at) / RFU CYB561 (11721691_x_at) / Fold change /veh CYB561 (11721691_x_at) / RFU ANKRD19P (11752326_a_at) / Fold change /veh ANKRD19P (11752326_a_at) / RFU OR2T12 /// OR2T33 /// OR2T8 (11738714_s_at) / Fold change /veh OR2T12 /// OR2T33 /// OR2T8 (11738714_s_at) / RFU VCAN (11748164_a_at) / Fold change /veh VCAN (11748164_a_at) / RFU JSRP1 (11732532_at) / Fold change /veh JSRP1 (11732532_at) / RFU KRTAP10-11 (11738290_x_at) / Fold change /veh KRTAP10-11 (11738290_x_at) / RFU MYO3A (11730013_a_at) / Fold change /veh MYO3A (11730013_a_at) / RFU EBF3 (11725865_a_at) / Fold change /veh EBF3 (11725865_a_at) / RFU CAMK2N1 (11719241_x_at) / Fold change /veh CAMK2N1 (11719241_x_at) / RFU C5orf56 (11738088_a_at) / Fold change /veh C5orf56 (11738088_a_at) / RFU OLFML3 (11715873_a_at) / Fold change /veh OLFML3 (11715873_a_at) / RFU LOC100653217 /// NTM (11731650_a_at) / Fold change /veh LOC100653217 /// NTM (11731650_a_at) / RFU MAPK11 (11762145_a_at) / Fold change /veh MAPK11 (11762145_a_at) / RFU FIZ1 (11724087_x_at) / Fold change /veh FIZ1 (11724087_x_at) / RFU OASL (11726364_x_at) / Fold change /veh OASL (11726364_x_at) / RFU SOX15 (11748057_x_at) / Fold change /veh SOX15 (11748057_x_at) / RFU CD79A (11719716_a_at) / Fold change /veh CD79A (11719716_a_at) / RFU HIST1H1D (11736915_at) / Fold change /veh HIST1H1D (11736915_at) / RFU CASKIN2 (11723855_a_at) / Fold change /veh CASKIN2 (11723855_a_at) / RFU LOC730098 (11760151_x_at) / Fold change /veh LOC730098 (11760151_x_at) / RFU OR4N2 (11742367_at) / Fold change /veh OR4N2 (11742367_at) / RFU PRRT2 (11749266_a_at) / Fold change /veh PRRT2 (11749266_a_at) / RFU SNX32 (11753110_a_at) / Fold change /veh SNX32 (11753110_a_at) / RFU CDHR5 (11726645_a_at) / Fold change /veh CDHR5 (11726645_a_at) / RFU RCAN1 (11760418_a_at) / Fold change /veh RCAN1 (11760418_a_at) / RFU FAM167A (11723789_a_at) / Fold change /veh FAM167A (11723789_a_at) / RFU FAM26E (11764081_at) / Fold change /veh FAM26E (11764081_at) / RFU ISYNA1 (11749810_s_at) / Fold change /veh ISYNA1 (11749810_s_at) / RFU ACY1 (11761880_at) / Fold change /veh ACY1 (11761880_at) / RFU 11764098_at / Fold change /veh 11764098_at / RFU SAMD14 (11745864_x_at) / Fold change /veh SAMD14 (11745864_x_at) / RFU NPB (11741838_a_at) / Fold change /veh NPB (11741838_a_at) / RFU TMPRSS6 (11731388_a_at) / Fold change /veh TMPRSS6 (11731388_a_at) / RFU KRTAP10-2 (11738614_at) / Fold change /veh KRTAP10-2 (11738614_at) / RFU ARHGAP8 /// PRR5-ARHGAP8 (11727945_x_at) / Fold change /veh ARHGAP8 /// PRR5-ARHGAP8 (11727945_x_at) / RFU KRTAP5-7 /// NADSYN1 (11734609_at) / Fold change /veh KRTAP5-7 /// NADSYN1 (11734609_at) / RFU RASL12 (11751679_a_at) / Fold change /veh RASL12 (11751679_a_at) / RFU CDKN2B (11736163_a_at) / Fold change /veh CDKN2B (11736163_a_at) / RFU PRF1 (11729649_at) / Fold change /veh PRF1 (11729649_at) / RFU, ZNF638 /// ZNF638-IT1 / Fold change vs veh, ZNF638 /// ZNF638-IT1 / RFU, PANK3 / Fold change vs veh, PANK3 / RFU, SH3YL1 / Fold change vs veh, SH3YL1 / RFU, ZEB2 / Fold change vs veh, ZEB2 / RFU, NRIP1 / Fold change vs veh, NRIP1 / RFU, PTTG1IP / Fold change vs veh, PTTG1IP / RFU, CAPN2 / Fold change vs veh, CAPN2 / RFU, MED14 / Fold change vs veh, MED14 / RFU, SNORA58 / Fold change vs veh, SNORA58 / RFU, C1orf63 / Fold change vs veh, C1orf63 / RFU, LRRFIP1 / Fold change vs veh, LRRFIP1 / RFU, NDUFAF7 / Fold change vs veh, NDUFAF7 / RFU, SLC12A2 / Fold change vs veh, SLC12A2 / RFU, IBTK / Fold change vs veh, IBTK / RFU, ESF1 / Fold change vs veh, ESF1 / Fold change vs veh, TMEM50B / RFU, TAOK1 / Fold change vs veh, TAOK1 / RFU, ACBD3 / Fold change vs veh, ACBD3 / RFU, TMA16 / Fold change vs veh, TMA16 / RFU, RWDD3 / Fold change vs veh, RWDD3 / RFU, BCAT1 / Fold change vs veh, BCAT1 / RFU, EDEM3 / Fold change vs veh, EDEM3 / RFU, TMEM33 / Fold change vs veh, TMEM33 / RFU, WDR75 / Fold change vs veh, WDR75 / RFU, AHCTF1 / Fold change vs veh, AHCTF1 / RFU, TFRC / Fold change vs veh, TFRC / RFU, ZDHHC17 / Fold change vs veh, ZDHHC17 / RFU, NOM1 / Fold change vs veh, NOM1 / RFU, ARL8B / Fold change vs veh, ARL8B / RFU, ZBTB11 / Fold change vs veh, ZBTB11 / RFU, TAMM41 / Fold change vs veh, TAMM41 / RFU, KIAA1704 /// LOC100996395 / Fold change vs veh, KIAA1704 /// LOC100996395 / RFU, ING1 / Fold change vs veh, ING1 / RFU, TRMT61B / Fold change vs veh, TRMT61B / RFU, FUBP3 / Fold change vs veh, FUBP3 / RFU, TP53 / Fold change vs veh, TP53 / RFU, TNKS2 / Fold change vs veh, TNKS2 / RFU, ZFP14 / Fold change vs veh, ZFP14 / RFU, ACTR2 / Fold change vs veh, ACTR2 / RFU, PPP3R1 / Fold change vs veh, PPP3R1 / RFU, PIK3R1 / Fold change vs veh, PIK3R1 / RFU, HNRNPA1 / Fold change vs veh, HNRNPA1 / RFU, RNF170 / Fold change vs veh, RNF170 / RFU, ZNF28 / Fold change vs veh, ZNF28 / RFU, RNGTT / Fold change vs veh, RNGTT / RFU, OGT / Fold change vs veh, OGT / RFU, BRD1 / Fold change vs veh, BRD1 / RFU, MARS / Fold change vs veh, MARS / RFU, ZNF655 / Fold change vs veh, ZNF655 / RFU, FAHD1 / Fold change vs veh, FAHD1 / RFU, BDP1 / Fold change vs veh, BDP1 / RFU, LRRCC1 / Fold change vs veh, LRRCC1 / RFU, ARID1A / Fold change vs veh, ARID1A / RFU, ZNF146 / Fold change vs veh, ZNF146 / RFU, ZNF330 / Fold change vs veh, ZNF330 / RFU, GPN3 / Fold change vs veh, GPN3 / RFU, C9orf123 / Fold change vs veh, C9orf123 / RFU, N4BP2L2 / Fold change vs veh, N4BP2L2 / RFU, ARFIP1 / Fold change vs veh, ARFIP1 / RFU, FAM179B / Fold change vs veh, FAM179B / RFU, BCL10 / Fold change vs veh, BCL10 / RFU, UHRF1BP1L / Fold change vs veh, UHRF1BP1L / RFU, BET1 / Fold change vs veh, BET1 / RFU, CNOT2 / Fold change vs veh, CNOT2 / RFU, ZNF268 / Fold change vs veh, ZNF268 / Fold change vs veh, ZNF507 / RFU, DGCR2 / Fold change vs veh, DGCR2 / RFU, WDSUB1 / Fold change vs veh, WDSUB1 / Fold change vs veh, HSP90B1 /// MIR3652 / RFU, ADSS / Fold change vs veh, ADSS / RFU, GK / Fold change vs veh, GK / RFU, ZNF148 / Fold change vs veh, ZNF148 / RFU, TAF9 / Fold change vs veh, TAF9 / RFU, SLC1A5 / Fold change vs veh, SLC1A5 / RFU, SLMO2 / Fold change vs veh, SLMO2 / RFU, ABCC4 / Fold change vs veh, ABCC4 / RFU, LOC101060439 /// RAP1B / Fold change vs veh, LOC101060439 /// RAP1B / RFU, RFX7 / Fold change vs veh, RFX7 / RFU, GTPBP10 / Fold change vs veh, GTPBP10 / RFU, CNEP1R1 / Fold change vs veh, CNEP1R1 / RFU, BIVM-ERCC5 /// ERCC5 / Fold change vs veh, BIVM-ERCC5 /// ERCC5 / RFU, ILF3 / Fold change vs veh, ILF3 / RFU 11762660_at / Fold change /veh 11762660_at / RFU VCAN (11757783_s_at) / Fold change /veh VCAN (11757783_s_at) / RFU DDX43 (11728927_at) / Fold change /veh DDX43 (11728927_at) / RFU KRT8 (11758188_x_at) / Fold change /veh KRT8 (11758188_x_at) / RFU NKD1 (11759106_at) / Fold change /veh NKD1 (11759106_at) / RFU SRD5A1 (11742802_a_at) / Fold change /veh SRD5A1 (11742802_a_at) / RFU TPSAB1 /// TPSB2 (11721975_s_at) / Fold change /veh TPSAB1 /// TPSB2 (11721975_s_at) / RFU GSTM3 (11746129_a_at) / Fold change /veh GSTM3 (11746129_a_at) / RFU IL23R (11737362_x_at) / Fold change /veh IL23R (11737362_x_at) / RFU TMEM51 (11727254_a_at) / Fold change /veh TMEM51 (11727254_a_at) / RFU PIWIL2 (11732686_x_at) / Fold change /veh PIWIL2 (11732686_x_at) / RFU ORM1 (11744905_x_at) / Fold change /veh ORM1 (11744905_x_at) / RFU CCDC152 (11743942_at) / Fold change /veh CCDC152 (11743942_at) / RFU ECM1 (11717891_a_at) / Fold change /veh ECM1 (11717891_a_at) / RFU IL23R (11748794_a_at) / Fold change /veh IL23R (11748794_a_at) / RFU TNFAIP8L3 (11732012_x_at) / Fold change /veh TNFAIP8L3 (11732012_x_at) / RFU MBOAT4 (11741988_at) / Fold change /veh MBOAT4 (11741988_at) / RFU 11764193_at / Fold change /veh 11764193_at / RFU TMEM53 (11763286_at) / Fold change /veh TMEM53 (11763286_at) / RFU MAGEB2 (11727129_at) / Fold change /veh MAGEB2 (11727129_at) / RFU TMEM200A (11744735_a_at) / Fold change /veh TMEM200A (11744735_a_at) / RFU CCDC152 (11751479_a_at) / Fold change /veh CCDC152 (11751479_a_at) / RFU FAM211A (11726209_a_at) / Fold change /veh FAM211A (11726209_a_at) / RFU RGS16 (11746705_a_at) / Fold change /veh RGS16 (11746705_a_at) / RFU VCAN (11755009_s_at) / Fold change /veh VCAN (11755009_s_at) / RFU RHOB (11743442_s_at) / Fold change /veh RHOB (11743442_s_at) / RFU RGS16 (11720943_a_at) / Fold change /veh RGS16 (11720943_a_at) / RFU RGS16 (11720944_at) / Fold change /veh RGS16 (11720944_at) / RFU, VPS4B / Fold change vs veh, VPS4B / RFU, CREB1 / Fold change vs veh, CREB1 / RFU, DNAJC13 / Fold change vs veh, DNAJC13 / RFU, GNAQ / Fold change vs veh, GNAQ / RFU, CDK5R1 / Fold change vs veh, CDK5R1 / RFU, ZRANB3 / Fold change vs veh, ZRANB3 / RFU, CUL4A / Fold change vs veh, CUL4A / RFU, CCNY / Fold change vs veh, CCNY / RFU, UFL1 / Fold change vs veh, UFL1 / RFU, COG3 / Fold change vs veh, COG3 / RFU, DIAPH2 / Fold change vs veh, DIAPH2 / RFU, SKA2 / Fold change vs veh, SKA2 / RFU, AFF3 / Fold change vs veh, AFF3 / RFU, LMF1 / Fold change vs veh, LMF1 / RFU, IPO11 / Fold change vs veh, IPO11 / RFU, DFFB / Fold change vs veh, DFFB / RFU, FOXP1 / Fold change vs veh, FOXP1 / RFU, CARD8 / Fold change vs veh, CARD8 / RFU, STRN3 / Fold change vs veh, STRN3 / RFU, ADK / Fold change vs veh, ADK / RFU, RASSF2 / Fold change vs veh, RASSF2 / RFU, WIPF1 / Fold change vs veh, WIPF1 / RFU, LARP1B / Fold change vs veh, LARP1B / RFU, RASA1 / Fold change vs veh, RASA1 / RFU, RB1 / Fold change vs veh, RB1 / RFU, PPFIA1 / Fold change vs veh, PPFIA1 / RFU, MAT2A / Fold change vs veh, MAT2A / RFU, CCT5 / Fold change vs veh, CCT5 / RFU, WDR92 / Fold change vs veh, WDR92 / RFU, CUX1 / Fold change vs veh, CUX1 / RFU, TTC7A / Fold change vs veh, TTC7A / RFU, TMEM135 / Fold change vs veh, TMEM135 / RFU, DEPTOR / Fold change vs veh, DEPTOR / RFU, CPM / Fold change vs veh, CPM / RFU, DNAJB6 / Fold change vs veh, DNAJB6 / RFU, CACNA2D3 / Fold change vs veh, CACNA2D3 / RFU, DTX4 / Fold change vs veh, DTX4 / RFU, TFCP2 / Fold change vs veh, TFCP2 / RFU, GMCL1 /// GMCL1P1 / Fold change vs veh, GMCL1 /// GMCL1P1 / RFU, AEBP2 / Fold change vs veh, AEBP2 / RFU, SNHG1 /// SNORD22 /// SNORD25 /// SNORD26 /// SNORD27 /// SNORD28 /// SNORD29 /// SNORD31 / Fold change vs veh, SNHG1 /// SNORD22 /// SNORD25 /// SNORD26 /// SNORD27 /// SNORD28 /// SNORD29 /// SNORD31 / Fold change (Aza/veh), C12orf56 (ProbeSet 11735607_a_at) / Fold change (ACY-1035/veh), C12orf56 (ProbeSet 11735607_a_at) / Fold change (Aza/veh), FGFR1OP (ProbeSet 11751329_s_at) / Fold change (ACY-1035/veh), FGFR1OP (ProbeSet 11751329_s_at) / Fold change (Aza/veh), VPS36 (ProbeSet 11739960_a_at) / Fold change (ACY-1035/veh), VPS36 (ProbeSet 11739960_a_at) / RFU SYPL1 (11715823_x_at) / Fold change /veh SYPL1 (11715823_x_at) / RFU IGFBP7 (11715501_s_at) / Fold change /veh IGFBP7 (11715501_s_at) / RFU REEP3 (11722064_at) / Fold change /veh REEP3 (11722064_at) / RFU IGLL1 (11728026_x_at) / Fold change /veh IGLL1 (11728026_x_at): dose or concentration left out as unconfirmed
Conditions: ProbeSet 11732277_a_at; LIST D

With `Nc1ccc(-c2cccs2)cc1NC(=O)c1ccc2c(c1)cc(C1CC1)n2CCN1CCOCC1` [ACY-1035] the “Fold change vs veh, FOXP1” value was 0.94.
